# Target: T1, BRAF V599E (Homo sapiens, UniProt P15056, V600E)
# T1 construct: purchased Thermo Fisher Scientific (Life Technologies) SelectScreen
# Assay: SelectScreen Z'LYTE
# Type: biochemical
# Conditions: ATP 100 µM
# Method in brief: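 Percent values come from Thermo SelectScreen profiling of NU5455, combining activity and binding assays. CSF1R was run in Z'LYTE format at Km app ATP, and CAMK1 in Adapta format with ATP listed at 10.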
# T1 sequence (P15056 417-766 V600E limits assumed): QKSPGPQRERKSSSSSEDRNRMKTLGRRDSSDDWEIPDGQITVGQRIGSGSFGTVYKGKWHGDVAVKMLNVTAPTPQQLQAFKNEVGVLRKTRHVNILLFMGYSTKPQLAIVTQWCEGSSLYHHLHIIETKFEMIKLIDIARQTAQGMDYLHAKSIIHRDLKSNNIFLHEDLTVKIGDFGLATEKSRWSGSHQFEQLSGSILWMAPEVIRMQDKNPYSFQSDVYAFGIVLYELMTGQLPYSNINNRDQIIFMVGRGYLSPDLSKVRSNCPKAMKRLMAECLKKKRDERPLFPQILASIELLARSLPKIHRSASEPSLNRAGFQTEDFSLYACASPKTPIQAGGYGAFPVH
smiles,measurement,value
CN(C(=O)CN1CCOCC1)c1ccc2sc3c(-c4cccc5c(=O)cc(N6CC7CCC(C6)O7)oc45)cccc3c2c1 [NU5455],inhibition at 1 µM,18.3%
